# Data reported in patent US5854204A, “Aβ peptides that modulate β-amyloid aggregation” (priority 1996, dated 1998).
# Peptide text beside a SMILES is read from it. * marks the point of attachment. Cholyl = C[C@H](CCC(=O)*)[C@H]1CC[C@H]2[C@@H]3[C@H](O)C[C@@H]4C[C@H](O)CC[C@]4(C)[C@H]3C[C@H](O)[C@]12C
# How the values were obtained:
# Aβ1-40 [1] = target: T1, Aβ1-40 (Homo sapiens, UniProt P05067); conditions: for ΔLag (ratio of lag time with test compound to lag time of control): Table V, 100 mole % inhibitor relative to Aβ1-40;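 for all read-outs here: Aβ nucleation assay tracking fiber polymerization from monomer by turbidity (light scattering), shaken continuously in 96-well plates, read every 15 min over 5 h, compared with compound-free control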
# Text: (§1) The nucleation assay is employed to determine the ability of test compounds to alter (e.g. inhibit) the early events in formation of β-AP fibers from monomeric β-AP. […] The time delay before polymerization of β-AP monomer can be quantified as well as the extent of formation of insoluble fiber by light scattering (turbidity). Polymerization reaches equilibrium when the maximum turbidity reaches a plateau. […] The threshold of sensitivity for the measurement of turbidity is in the range of 15-20 μM β-AP. […] This assay can be performed using stirring or shaking to accelerate polymerization, thereby increasing the speed of the assay. Moreover the assay can be adapted to a 96-well plate format to screen multiple compounds.
# (§2) HFIP-solubilized peptide is sonicated in a waterbath sonicator for 5 min at highest setting, then evaporated to dryness under a stream of argon. […] Test compounds are dissolved in DMSO at a 100× concentration. […] Ten microliters of the mixture is then added to the bottom of a well of a Corning Costar ultra low binding 96-well plate (Corning Costar, Cambridge Mass.; cat. No. 2500). […] The plate is then returned to the shaker and shaken continuously for 5 hours. Turbidity readings are taken at 15 minute intervals.
# (§3) Accordingly a fold increase in lag time of 1.0 indicates no change in lag time, whereas numbers >1.0 indicate an increase in lag time. The "% inhibition of plateau", which is a measure of the ability of the compound to decrease the total amount of aggregation, refers to the reduction of the final turbidity in the presence of the test compound expressed as a percent of the control without the test compound.
# Aβ1-40 [2] = target: T1, Aβ1-40; assay: biochemical; conditions: read-out: % Inucl'n (percent reduction in maximum turbidity)
# Text: as §1, §2, §3
# Aβ1-40 [3] = target: T1, Aβ1-40; assay: Seeded extension assay (thioflavin T fluorescence); format: biochemical; parameters: Natural β-AP (β-AP1-40) was obtained commercially from Bachem (Torrance, Calif.); purchased Bachem (Torrance, Calif.); conditions: Table V; 25 mole % inhibitor
# Experimental: The seeded extension assay can be employed to measure the rate of Aβ fiber formed in a solution of Aβ monomer following addition of polymeric Aβ fiber "seed". The ability of test compounds to prevent further deposition of monomeric Aβ to previously deposited amyloid is determined using a direct indicator of β-sheet formation using fluorescence. In contrast with the nucleation assay, the addition of seed provides immediate nucleation and continued growth of preformed fibrils without the need for continuous mixing, and thus results in the absence of a lag time before polymerization starts. Since this assay uses static polymerization conditions, the activity of positive compounds in the nucleation assay can be confirmed in this second assay under different conditions and with an additional probe of amyloid structure.
# Samples of the solution are then diluted in thioflavin T (Th-T). The polymer-specific association of Th-T with Aβ produces a fluorescent complex that allows the measurement of the extent of fibril formation (Levine, H. (1993) Protein Science 2:404-410). In particular, association of Th-T with aggregated β-AP, but not monomeric or loosely associated β-AP, gives rise to a new excitation (ex) maximum at 450 nm and an enhanced emission (em) at 482 nm, compared to the 385 nm (ex) and 445 nm (em) for the free dye. Small aliquots of the polymerization mixture contain sufficient fibril to be mixed with Th-T to allow the monitoring of the reaction mixture by repeated sampling. A linear growth curve is observed in the presence of excess monomer. The formation of thioflavin T responsive β-sheet fibrils parallels the increase in turbidity observed using the nucleation assay.
# To prepare the stock seed, 1 ml of the Aβ monomer preparation, is incubated for approximately 8 days at 37° C. and sheared sequentially through an 18, 23, 26 and 30 gauge needle 25, 25, 50, and 100 times respectively. 2 μl samples of the sheared material is taken for fluorescence measurements after every 50 passes through the 30 gauge needle until the fluorescence units (FU) plateau (approx. 100-150×). Test compounds are prepared by dissolving an appropriate amount of test compound in 1× PBS to a final concentration of 1 mM (10× stock). If insoluble, the compound is dissolved in 1/10 volume of DMSO and diluted in 1× PBS to 1 mM. A further 1/10 dilution is also prepared to test each candidate at both 100 μM and 10 μM.
# To perform the seeded extension assay, each sample is set up with 50 μl of 200 μM monomer, 125 FU sheared seed (a variable quantity dependent on the batch of seed, routinely 3-6 μl) and 10 μl of 10× modulator solution. The sample volume is then adjusted to a final volume of 100 μl with 1× PBS. Two concentrations of each modulator typically are tested: 100 μM and 10 μM, equivalent to a 1:1 and a 1:10 molar ratio of monomer to modulator. The controls include an unseeded reaction to confirm that the fresh monomer contains no seed, and a seeded reaction in the absence of any modulators, as a reference to compare against candidate modulators. The assay is incubated at 37° C. for 6 h, taking 2 μl samples hourly for fluorescence measurements. To measure fluorescence, a 2 μl sample of Aβ is added to 400 μl of Thioflavin-T solution (50 mM Potassium Phosphate […] pH 7.5). The samples are vortexed and the fluorescence is read in a 0.5 ml micro quartz cuvette at EX 450 nm and EM 482 nm (Hitachi 4500 Fluorimeter).
# The modulators were evaluated in the nucleation and seeded extension assays described in Example 6 and the results are summarized below in Table V. The change in lag time (ΔLag) is presented as the ratio of the lag time observed in the presence of the test compound to the lag time of the control. […] Inhibition (% Inucl'n) is listed as the percent reduction in the maximum observed turbidity in the control at the end of the assay time period. […]
# T1 sequence (P05067 672-711): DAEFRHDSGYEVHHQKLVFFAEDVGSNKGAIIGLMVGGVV
Compound,% Inhibition of Plateau (Aβ1-40 [1]),inhibition at 100 % (Aβ1-40 [2]) [%],% Iext'n (percent reduction of thioflavin-T fluorescence) (Aβ1-40 [3]) [%],"Fold Increase in Lag Time (Aβ1-40 [1]; Table IV, 100 mole %)",ΔLag (ratio of lag time with test compound to lag time of control) (Aβ1-40 [1]),inhibition at 33 % (Aβ1-40 [2]) [%]
"CC(C)C[C@H](NC(=O)[C@H](CCCCN)NC(=O)CC[C@@H](C)[C@H]1CC[C@H]2[C@@H]3[C@H](O)C[C@@H]4C[C@H](O)CC[C@]4(C)[C@H]3C[C@H](O)[C@]12C)C(=O)N[C@H](C(=O)N[C@@H](Cc1ccccc1)C(=O)N[C@@H](Cc1ccccc1)C(N)=O)C(C)C [PPI-319, cholyl-Aβ16-20-amide]",~ 0%,70,52,–,–,–
"C[C@H](NC(=O)[C@H](C)NC(=O)[C@H](C)NC(=O)[C@H](C)NC(=O)[C@H](C)NC(=O)CC[C@@H](C)[C@H]1CC[C@H]2[C@@H]3[C@H](O)C[C@@H]4C[C@H](O)CC[C@]4(C)[C@H]3C[C@H](O)[C@]12C)C(=O)O [PPI-365, Cholyl-penta-alanine, reference compound]",~ 0%,-7,0,–,–,–
"CC(C)C[C@H](NC(=O)CC[C@@H](C)[C@H]1CC[C@H]2[C@@H]3[C@H](O)C[C@@H]4C[C@H](O)CC[C@]4(C)[C@H]3C[C@H](O)[C@]12C)C(=O)N[C@H](C(=O)N[C@@H](Cc1ccccc1)C(=O)N[C@@H](Cc1ccccc1)C(=O)N[C@@H](C)C(=O)O)C(C)C [PPI-368, cholyl-Aβ17-21]",100%,100,91,–,–,–
"CC(C)C[C@H](NC(=O)[C@@H](N)CCCCN)C(=O)N[C@H](C(=O)N[C@@H](Cc1ccccc1)C(=O)N[C@@H](Cc1ccccc1)C(=O)O)C(C)C [PPI-377, Aβ16-20]",–,0,8,~ 1 fold,1.1,–
CC(C)C[C@H](N)C(=O)N[C@H](C(=O)N[C@@H](Cc1ccccc1)C(=O)N[C@@H](Cc1ccccc1)C(=O)N[C@@H](C)C(=O)O)C(C)C [PPI-386],–,15,11,–,1.0,–
CC(C)[C@H](NC(=O)CC[C@@H](C)[C@H]1CC[C@H]2[C@@H]3[C@H](O)C[C@@H]4C[C@H](O)CC[C@]4(C)[C@H]3C[C@H](O)[C@]12C)C(=O)N[C@@H](Cc1ccccc1)C(=O)N[C@@H](Cc1ccccc1)C(=O)N[C@@H](C)C(=O)O [PPI-392] (Cholyl-VFFA-OH),–,76,10,–,–,–
CC(C)C[C@H](NC(=O)CC[C@@H](C)[C@H]1CC[C@H]2[C@@H]3[C@H](O)C[C@@H]4C[C@H](O)CC[C@]4(C)[C@H]3C[C@H](O)[C@]12C)C(=O)N[C@H](C(=O)N[C@@H](Cc1ccccc1)C(=O)O)C(C)C [PPI-393],–,1,0,–,–,–
CC(C)[C@H](NC(=O)CC[C@@H](C)[C@H]1CC[C@H]2[C@@H]3[C@H](O)C[C@@H]4C[C@H](O)CC[C@]4(C)[C@H]3C[C@H](O)[C@]12C)C(=O)N[C@@H](Cc1ccccc1)C(=O)N[C@@H](Cc1ccccc1)C(=O)O [PPI-394],–,55,0,–,–,–
C[C@H](NC(=O)[C@H](Cc1ccccc1)NC(=O)[C@H](Cc1ccccc1)NC(=O)CC[C@@H](C)[C@H]1CC[C@H]2[C@@H]3[C@H](O)C[C@@H]4C[C@H](O)CC[C@]4(C)[C@H]3C[C@H](O)[C@]12C)C(=O)O [PPI-395],–,51,6,–,–,–
CC(C)C[C@H](NC(=O)CC[C@@H](C)[C@H]1CC[C@H]2[C@@H]3[C@H](O)C[C@@H]4C[C@H](O)CC[C@]4(C)[C@H]3C[C@H](O)[C@]12C)C(=O)N[C@H](C(=O)N[C@@H](Cc1ccccc1)C(=O)N[C@@H](Cc1ccccc1)C(=O)N[C@@H](CCCCN)C(=O)O)C(C)C [PPI-407] (Cholyl-LVFFK-OH),–,–,85,–,–,100
CC(C)C[C@H](NC(=O)[C@@H](NC(=O)[C@H](Cc1ccccc1)NC(=O)[C@H](Cc1ccccc1)NC(=O)CC[C@@H](C)[C@H]1CC[C@H]2[C@@H]3[C@H](O)C[C@@H]4C[C@H](O)CC[C@]4(C)[C@H]3C[C@H](O)[C@]12C)C(C)C)C(=O)N[C@@H](C)C(=O)O [PPI-426] (Cholyl-FFVLA-OH),–,100,89,–,–,–
CC(C)[C@H](NC(=O)[C@H](Cc1ccccc1)NC(=O)[C@H](Cc1ccccc1)NC(=O)CC[C@@H](C)[C@H]1CC[C@H]2[C@@H]3[C@H](O)C[C@@H]4C[C@H](O)CC[C@]4(C)[C@H]3C[C@H](O)[C@]12C)C(=O)O [PPI-429],–,-33,7,–,–,–
CC(C)C[C@H](NC(=O)[C@@H](NC(=O)[C@H](Cc1ccccc1)NC(=O)[C@H](Cc1ccccc1)NC(=O)CC[C@@H](C)[C@H]1CC[C@H]2[C@@H]3[C@H](O)C[C@@H]4C[C@H](O)CC[C@]4(C)[C@H]3C[C@H](O)[C@]12C)C(C)C)C(=O)O [PPI-430] (Cholyl-FFVL-OH),–,33,75,–,–,–
